Experimental data: US11045419B2, “Pharmaceutical preparation of carbohydrates for therapeutic use” (Glycomine, Inc., priority 2013, dated 2021)

Test system: CDG-Ia fibroblasts
Experiment: LLO oligosaccharide distribution in fibroblasts by normal phase chromatography
Type: cell-based, human
Conditions: low glucose DMEM, 300 μM treatment, peak area normalized to protein content
Experimental: Cellular internalization into the cytosol and subsequent integration of the M1P-liposomes (as prepared in Example 1), was assessed in vitro using primary human dermal fibroblasts derived from patients affected with CDG-Ia disorder (CDG-Ia fibroblasts) and wild-type human dermal fibroblasts. For evaluation of the ability of the M1P-liposomes to correct protein glycosylation defects, M1P-liposomes were delivered to CDG Type I primary fibroblasts derived from patients affected with CDG-Ia disorder. The ability to drive glycosylation forward was evaluated by comparing glycoprotein N-glycan structure before and after treatment. Such comparison required N-glycan analysis using normal phase chromatography. By utilizing endocytotic pathways, M1P-liposomes can enter the cell interior and release their cargo into the cytosol. Due to the ability to deliver a non-modified mannose-1-phosphate into the cytosol, analysis was performed on the assembly of LLO oligosaccharides in wild-type fibroblasts and fibroblasts derived from a CDG-Ia patient ([…] structures were isolated from the wild-type fibroblasts (having 100% PMM activity) as well as from the CDG-Ia fibroblasts (having 10% PMM activity) and the amounts of the LLO structures were compared using chromatographic methods. CDG-Ia dermal fibroblasts make a series of truncated lipid-linked oligosaccharide (LLO) species ranging in size from M2Gn2 to M5Gn2 with M2Gn2 and M3Gn2 being predominant. The M1P liposomes from Example 1 were tested in order to evaluate their capacity to normalize the distribution of various LLO oligosaccharides. CDG-Ia fibroblasts cultured in low glucose DMEM media were incubated with 300 μM of bare M1P (M1P) and 300 μM of the M1P-liposomes (M1PL). After treatment, cells were harvested and LLO oligosaccharides were recovered, hydrolyzed, modified with fluorophore, and analyzed by normal phase chromatography as described by Gao et al. (Methods in Enzymology, 2006, 415, 3-20) and Bones et al. (Anal. Chem, 2011, 83 (13), 5344-52). The peak area of each LLO was normalized to protein content prior to calculation of percentage abundance.

With O=P(O)(O)OC1O[C@H](CO)[C@@H](O)[C@H](O)[C@@H]1O (stereo partly shown) [M1P, mannose-1-phosphate] the “M2Gn2 LLO oligosaccharide distribution (percentage abundance)” value was 40%, the “M3Gn2 LLO oligosaccharide distribution (percentage abundance)” value was 24% and the “M4Gn2 LLO oligosaccharide distribution (percentage abundance)” value was 27%. For the same molecule, the “M5Gn2 LLO oligosaccharide distribution (percentage abundance)” value was 8.9%.
